In patent US20250049832A1, “CRYSTAL FORM OF NUCLEOSIDE COMPOUND” (priority 2021, published 2025):
Values after ≈ are worked out from the molar mass of the structure shown.

Columns and labels:
[1] = Solid stability study (XRPD and HPLC purity after storage); assay type: physicochemical
Description: X-ray powder diffraction patterns were collected using a zero-background sample plate on a Bruker D8 Advance X-ray diffractometer equipped with an autosampler. The radiation source used was Cu Kα (λ=1.5418 Å), with the X-ray tube voltage set at 40 kV and the X-ray tube current set at 40 mA. The divergence slit for the X-rays was 0.6 mm. A suitable amount of the sample was placed in the center of the zero-background sample plate under the ambient condition and lightly pressed with a clean glass slide to obtain a smooth, flat surface. The zero-background sample holder was then fixed. Diffraction analysis of the sample was performed with a scan step size of 0.02° (2θ) over a range of 3-40° (2θ). The software used for data collection was DIFFRAC.COMMANDER, and the data were analyzed and presented using DIFFRAC.EVA. The instrument used for liquid chromatography analysis is the Agilent HPLC 1260 series. [table] The ATV014 crystalline form I obtained from Example 2, batch number 41579-025-C1, was used for solid stability studies. The samples were placed under the conditions shown in Table 5, and then their XRPD and purity were tested.

physchem = assay type: physicochemical
Method: Based on the salt screening study results, the solubility of ATV014 crystalline form I obtained in Example 2, batch number 41579-025-C5, was determined at 37° C. in FaSSIF, FeSSIF, SGF, and water at 0.5 h, 2 h, and 24 h. The solubility of the sample is pH-dependent, meaning that the lower the pH, the higher the solubility.

[2] = Dynamic vapor sorption analysis (DVS), hygroscopicity; assay type: physicochemical; details: for DVS Hygroscopic weight gain %: 25° C., batch 41579-025-C5
Method: Vapor sorption/desorption data of the sample was obtained using DVS Intrinsic. A sample of 10-50 mg was weighed and placed in the sample chamber for automatic weighing. Parameters were set according to Table 1 to analyze the hygroscopicity of the sample.
The ATV014 crystalline form I obtained in Example 2 with batch number 41579-025-C5 was subjected to PLM (Polarized Light Microscopy Analysis), XRPD (X-ray Powder Diffraction), DSC (Differential Scanning calorimetry), TGA (Thermogravimetric Analysis), and DVS (Dynamic Vapor Sorption Instrument) testing.

[3] = Activity of ATV014 compared to GS-441524 (inventor's research)
Description: (§1) The compound represented by the formula ATV014 is a derivative of the compound GS-441524.

[4] = Description: as §1
SARS-CoV-2 = details: in vivo activity tests in mice; cited from earlier work
[5] = 40° C./75% RH, open container, 7 days
[6] = 60° C., closed container, 7 days
[7] = Room temperature/92.5% RH, open container, 7 days

Structure (SMILES): N#C[C@@]1(c2ccc3c(N)ncnn23)O[C@H](COC(=O)C2CCCCC2)[C@@H](O)[C@H]1O [ATV014 crystalline form I]
- Purity % ([1]; 0 day (start of stability study), batch 41579-025-C1): 98.12%
- Purity % [1, 5]: 98.09%
- XRPD result [1, 5]: No change
- Purity % [1, 6]: 98.10%
- XRPD result [1, 6]: No change
- physical and chemical properties after storage ([1]; 7 days under 40° C./75% RH, 60° C., and 92.5% RH): remained stable
- Purity % [1, 7]: 98.19%
- XRPD result [1, 7]: No change
- crystalline form of remaining solids during solubility determination (XRPD) (physchem): the crystalline form did not change
- Solubility (physchem; 37 °C, pH 1.24, simulated gastric fluid, thermodynamic from solid): ~2900 µg/mL (≈ 7.22 mM)
- Solubility (physchem; 37 °C, pH 5.53, water, thermodynamic from solid): ~5 µg/mL (≈ 0.0125 mM)
- Solubility (physchem; 0.5 h, pH 1.24): 2480 µg/mL (≈ 6.18 mM)
- Solubility (physchem; 2 h, pH 1.24): 2560 µg/mL (≈ 6.38 mM)
- Solubility (physchem; 24 h, pH 1.24): 2860 µg/mL (≈ 7.12 mM)
- XPRD (remaining solid) (physchem; 24 h, pH 5.53): Unchanged
- XPRD (remaining solid) (physchem; simulated gi fluid, 24 h, pH 1.24): Unchanged
- XPRD (remaining solid) (physchem; simulated gi fluid, 24 h, pH 4.95): Unchanged
- XPRD (remaining solid) (physchem; simulated gi fluid, 24 h, pH 6.45): Unchanged
- hygroscopicity (DVS results) [2]: low hygroscopicity
- DVS Hygroscopic weight gain % ([2]; 80% RH): 80% RH: 0.31%.
- DVS Hygroscopic weight gain % ([2]; 90% RH): 90% RH: 0.40%.
- Crystalline form after DVS testing ([2]; after full sorption/desorption cycle): unchanged after

Structure (SMILES): N#C[C@@]1(c2ccc3c(N)ncnn23)O[C@H](COC(=O)C2CCCCC2)[C@@H](O)[C@H]1O [ATV014]
- activity compared to the compound GS-441524 [3]: better
- bioavailability compared to the compound GS-441524 [4]: better

Structure (SMILES): N#C[C@@]1(c2ccc3c(N)ncnn23)O[C@H](CO)[C@@H](O)[C@H]1O [GS-441524]
- antiviral activity compared to Remdesivir (SARS-CoV-2): superior antiviral activity compared to Remdesivir
